Source: patent publication US20220401514A1, “ANTIMICROBIAL, BACTERIOPHAGE-DERIVED POLYPEPTIDES AND THEIR USE AGAINST GRAM-NEGATIVE AND ACID-FAST BACTERIA” (CONTRAFECT CORPORATION, priority 2019, published 2022)
Like-named read-outs stand apart in the source and are kept apart here.

Assays:
[1] = system: M. kansasii Hauduroy ATCC 12478; experiment: 45 hr MIC against M. kansasii (NTM), Mueller Hinton broth; type: cell-based, Mycobacterium kansasii
Pseudomonas aeruginosa = experiment: microbe, parasite or virus in culture; type: cell-based; conditions: for MIC50 / MIC100 / MIC Range: P. aeruginosa isolates (n per peptide in table); for MIC: CAA without human serum
Enterobacter cloacae = experiment: microbe, parasite or virus in culture; type: cell-based; conditions: for MIC50 / MIC100 / MIC Range: E. cloacae isolates (n per peptide in table)
Protocol: (§1) Determination of Minimal Inhibitory Concentrations (MIC).
(§2) Additional MIC testing was performed for several peptides against the ESKAPE pathogens Escherichia coli, Enterobacter cloacae, Klebsiella pneumoniae, and Acinetobacter baumannii, in CAA supplemented with human serum (Table D).

Escherichia coli = experiment: microbe, parasite or virus in culture; type: cell-based; conditions: for MIC50 / MIC100 / MIC Range: E. coli isolates (n per peptide in table)
Protocol: as §1, §2

[2] = system: carbapenem-resistant P. aeruginosa clinical isolate CFS-1292; experiment: MIC by modified CLSI broth microdilution against P. aeruginosa CFS-1292 (CAA, CAA + human serum); type: cell-based, Pseudomonas aeruginosa; conditions: for MIC (μg/mL) against CFS-1292 in 100% CAA (1st run/2nd run): 1st run or single value
M. avium = experiment: 45 hr MIC against M. avium (NTM); type: cell-based, Mycobacterium avium; conditions: M. avium Chester ATCC 700898
M. fortuitum = experiment: 45 hr MIC against M. fortuitum (NTM); type: cell-based, Mycobacterium fortuitum; conditions: M. fortuitum subsp. Fortuitum da Costa Cruz. ATCC 6841
M. intracellulare = experiment: 45 hr MIC against M. intracellulare (NTM); type: cell-based, Mycobacterium intracellulare; conditions: M. intracellulare (Cuttino and McCabe) Runyon ATCC 13950
Acinetobacter baumannii = experiment: microbe, parasite or virus in culture; type: cell-based; conditions: for MIC50 / MIC100 / MIC Range: A. baumannii isolates (n per peptide in table)
M. smegmatis = experiment: 45 hr MIC against M. smegmatis (NTM), Mueller Hinton broth; type: cell-based, Mycobacterium smegmatis
M. scrofulaceum = experiment: 45 hr MIC against M. scrofulaceum (NTM); type: cell-based, Mycobacterium scrofulaceum; conditions: M. scrofulaceum Prissick and Masson ATCC 19981
Klebsiella pneumoniae [3] = type: cell-based; conditions: for MIC50 / MIC100 / MIC Range: K. pneumoniae isolates (n per peptide in table); for MIC: Klebsiella pneumoniae HM-44, CAA supplemented with human serum
Protocol: as §1, §2

[4] = system: Mycobacterium tuberculosis strains
Protocol: MIC values for various Chp peptides were determined using the CLSI method for broth microdilution in 96-well microtiter format.
Next, MIC values for various Chp peptides were determined using the CLSI method above for broth microdilution in 96-well microtiter format for two different Mycobacterium tuberculosis strains. The MIC was determined as explained above for the NTM strains.

[5] = system: carbapenem-resistant bacterial strains; experiment: organism not typed; type: cell-based
Excerpt: as §1

S. maltophilia = experiment: MIC against S. maltophilia isolates; type: cell-based, Stenotrophomonas maltophilia; conditions: S. maltophilia isolates (n per peptide in table)
Protocol: as §1
In addition to the results discussed above in Example 3, further testing was conducted on several Chp peptides. MIC values were determined against different species, including P. aeruginosa, K. pneumoniae, A. baumannii, E. cloacae, E. coli, and S. maltophilia, and the results are presented below in Tables 40-45, wherein n=number of isolates tested for each species and MIC is measured as μg/mL.

[6] = Stability assessment in 100% CAA; type: in vitro ADME; parameters: unit not given beside the values
Protocol: Stability was assessed after incubation in 100% human serum at 37° C. after 10 minutes, 1 hour, and 2 hours.
Stability assessment was further conducted in 100% CAA and rabbit serum using the same methodology discussed above.

[7] = system: P. aeruginosa strain CFS-1292; experiment: MIC in presence and absence of NaCl (140 mM); type: cell-based, Pseudomonas aeruginosa
Protocol: Certain Chp peptides were evaluated over a range of physiological NaCl levels and pH values, and were further evaluated for activity in the presence of various divalent cations.

Klebsiella pneumoniae [8] = experiment: microbe, parasite or virus in culture; type: cell-based; conditions: CAA without human serum
[9] = Enterobacter cloacae ATCC 13047, CAA supplemented with human serum
[10] = Escherichia coli ATCC 25922, CAA supplemented with human serum
[11] = Acinetobacter baumannii ATCC BAA 747, CAA supplemented with human serum
[12] = Mycobacterium tuberculosis (Zopf) Lehmann and Neumann ATCC 25177
[13] = Mycobacterium tuberculosis (Zopf) Lehmann and Neumann ATCC 35817
[14] = carbapenem-resistant isolate PA19
[15] = carbapenem-resistant isolate PA20
[16] = carbapenem-resistant isolate PA21
[17] = carbapenem-resistant isolate PA22
[18] = carbapenem-resistant isolate PA23
[19] = carbapenem-resistant isolate PA24
[20] = carbapenem-resistant isolate WLC-452

MSKKRSRMSRRRSKKLFSKTALRTKSVNTRPPMRGGFRF [Chp8]
45 hr MIC [1]: 4 µg/mL
MIC50 (Pseudomonas aeruginosa): 8 µg/mL
MIC100 (Pseudomonas aeruginosa): >8 µg/mL
MIC50 (Enterobacter cloacae): 2 µg/mL
MIC100 (Enterobacter cloacae): 4 µg/mL
MIC Range (Enterobacter cloacae): 1 to 8 µg/mL
MIC (Enterobacter cloacae; [9]): 16 µg/mL
MIC50 (Escherichia coli): 2 µg/mL
MIC100 (Escherichia coli): 4 µg/mL
MIC Range (Escherichia coli): 0.5 to 4 µg/mL
MIC (Escherichia coli; [10]): 0.5 µg/mL
MIC (μg/mL) against CFS-1292 in 100% CAA (1st run/2nd run) [2]: 0.5 µg/mL
MIC (μg/mL) against CFS-1292 in CAA + […] human serum [2]: 2 µg/mL
45 hr MIC (M. avium): 8 µg/mL
45 hr MIC (M. fortuitum): 2 µg/mL
45 hr MIC (M. intracellulare): 4 µg/mL
MIC50 (Acinetobacter baumannii): 0.5 µg/mL
MIC100 (Acinetobacter baumannii): 1 µg/mL
MIC Range (Acinetobacter baumannii): 0.25 to 2 µg/mL
MIC (Acinetobacter baumannii; [11]): 2 µg/mL
45 hr MIC (M. smegmatis; M. smegmatis MC^2 155, Run #1): 4 µg/mL
45 hr MIC (M. smegmatis; M. smegmatis MC^2 155, Run #2): 8 µg/mL
45 hr MIC (M. scrofulaceum): 4 µg/mL
MIC50 (Klebsiella pneumoniae [3]): 4 µg/mL
MIC100 (Klebsiella pneumoniae [3]): 8 µg/mL
MIC Range (Klebsiella pneumoniae [3]): 2 to 8 µg/mL
MIC (Klebsiella pneumoniae [3]): 4 µg/mL
MIC [4, 12]: 32 µg/mL
MIC [4, 13]: 8 µg/mL
MIC [5, 14]: 1 µg/mL
MIC [5, 15]: >8 µg/mL
MIC [5, 16]: >8 µg/mL
MIC [5, 17]: >8 µg/mL
MIC [5, 18]: >8 µg/mL
MIC [5, 19]: 8 µg/mL
MIC [5, 20]: 4 µg/mL
MIC50 (S. maltophilia): >8 µg/mL
MIC100 (S. maltophilia): >8 µg/mL
MIC (100% CAA) [6]: 0.5

MARSRRRMSKRSSRRSFRKYAKSHKKNFKARSMRGGIRL [Ecp2]
45 hr MIC [1]: 2 µg/mL
MIC (Pseudomonas aeruginosa; P. aeruginosa 453 (Human clinical isolate, HSS), RSC 1292): 8 µg/mL
MIC (Pseudomonas aeruginosa; P. aeruginosa (ATCC 14213, human hip wound), RSC 1111): 4 µg/mL
MIC (Pseudomonas aeruginosa; P. aeruginosa (ATCC 15152, abscess in middle ear), RSC 1110): 1 µg/mL
MIC (Pseudomonas aeruginosa; P. aeruginosa (ATCC 15692, infected wound), RSC 489): 2 µg/mL
MIC (Pseudomonas aeruginosa; P. aeruginosa (ATCC 15692, infected wound), RSC 1115): 8 µg/mL
MIC (Pseudomonas aeruginosa; P. aeruginosa (ATCC 17646, human liver abscess), RSC 1109): 4 µg/mL
MIC (Pseudomonas aeruginosa; P. aeruginosa (ATCC 19142, tracheobronchial secretion), RSC 1108): 4 µg/mL
MIC (Pseudomonas aeruginosa; P. aeruginosa (ATCC 25102, bacteriophage host), RSC 1114): 2 µg/mL
MIC (Pseudomonas aeruginosa; P. aeruginosa (ATCC 27853, MIC control strain), RSC 815): 2 µg/mL
MIC (Pseudomonas aeruginosa; P. aeruginosa (ATCC BAA-27, lab strain), RSC 1113): 2 µg/mL
MIC (Pseudomonas aeruginosa; P. aeruginosa (PAO1, alternate source, HER1018), RSC 490): 2 µg/mL
MIC50 (Pseudomonas aeruginosa): 2 µg/mL
MIC100 (Pseudomonas aeruginosa): 8 µg/mL
MIC Range (Pseudomonas aeruginosa): 0.5 to 8 µg/mL
MIC50 (Enterobacter cloacae): 0.25 µg/mL
MIC100 (Enterobacter cloacae): 0.5 µg/mL
MIC Range (Enterobacter cloacae): 0.125 to 2 µg/mL
MIC (Enterobacter cloacae; Enterobacter cloacae (ATCC 13047, MIC control strain), RSC 1240, CAA without human serum): 4 µg/mL
MIC (Enterobacter cloacae; [9]): 16 µg/mL
MIC (Escherichia coli; E. coli (ATCC 25922, MIC control strain), RSC 813, CAA without human serum): 2 µg/mL
MIC (Escherichia coli; E. coli (HM346, colon, Crohn's disease), RSC 1212, CAA without human serum): 4 µg/mL
MIC50 (Escherichia coli): 0.5 µg/mL
MIC100 (Escherichia coli): 1 µg/mL
MIC Range (Escherichia coli): 0.24 to 4 µg/mL
MIC (Escherichia coli; [10]): 0.5 µg/mL
MIC (μg/mL) against CFS-1292 in 100% CAA (1st run/2nd run) [2]: 0.25 µg/mL
MIC (μg/mL) against CFS-1292 in CAA + […] human serum [2]: 0.25 µg/mL
45 hr MIC (M. avium): 2 µg/mL
45 hr MIC (M. fortuitum): 4 µg/mL
45 hr MIC (M. intracellulare): 8 µg/mL
MIC50 (Acinetobacter baumannii): 0.25 µg/mL
MIC100 (Acinetobacter baumannii): 0.5 µg/mL
MIC Range (Acinetobacter baumannii): 0.125 to 0.5 µg/mL
MIC (Acinetobacter baumannii; Acinetobacter baumannii (clinical isolate HSS), RSC 30, CAA without human serum): 2 µg/mL
MIC (Acinetobacter baumannii; Acinetobacter baumannii (clinical isolate HSS), RSC 32, CAA without human serum): 2 µg/mL
MIC (Acinetobacter baumannii; [11]): 1 µg/mL
45 hr MIC (M. smegmatis; M. smegmatis MC^2 155, Run #1): 4 µg/mL
45 hr MIC (M. smegmatis; M. smegmatis MC^2 155, Run #2): 8 µg/mL
45 hr MIC (M. scrofulaceum): 4 µg/mL
Fold change in MIC ([7]; CAA + 140 mM NaCl versus CAA without added NaCl): 8
MIC, CAA + 140 mM NaCl ([7]; CAA + 140 mM NaCl, P. aeruginosa CFS-1292): 2 µg/mL
MIC, CAA (no added NaCl) ([7]; CAA, no added NaCl, P. aeruginosa CFS-1292): 0.25 µg/mL
MIC50 (Klebsiella pneumoniae [3]): 0.5 µg/mL
MIC100 (Klebsiella pneumoniae [3]): 1 µg/mL
MIC Range (Klebsiella pneumoniae [3]): 0.5 to 1 µg/mL
MIC (Klebsiella pneumoniae [3]): 0.25 µg/mL
MIC [4, 12]: 32 µg/mL
MIC [4, 13]: 8 µg/mL
MIC (Klebsiella pneumoniae [8]; Klebsiella pneumoniae (ATCC 10031, MIC control strain), RSC 814): 4 µg/mL
MIC (Klebsiella pneumoniae [8]; Klebsiella pneumoniae (g2-3 HM35K), RSC 1138): 2 µg/mL
MIC (Klebsiella pneumoniae [8]; Klebsiella sp. (HM-44; colon, Crohn's disease), RSC 1139): 4 µg/mL
MIC (Klebsiella pneumoniae [8]; Klebsiella spp. (HM-223; gut of Crohn's disease patient), RSC 1131): 2 µg/mL
MIC [5, 14]: 0.5 µg/mL
MIC [5, 15]: 8 µg/mL
MIC [5, 16]: 8 µg/mL
MIC [5, 17]: 4 µg/mL
MIC [5, 18]: 2 µg/mL
MIC [5, 19]: 2 µg/mL
MIC [5, 20]: 1 µg/mL
MIC50 (S. maltophilia): 8 µg/mL
MIC100 (S. maltophilia): >8 µg/mL
MIC (100% CAA) [6]: 0.25

MRRKVKNTKRHQWRLTHSARSIKRANIMPSNPRGGRRF [Spi2]
45 hr MIC [1]: 1 µg/mL
MIC50 (Pseudomonas aeruginosa): >8 µg/mL
MIC100 (Pseudomonas aeruginosa): >8 µg/mL
MIC Range (Pseudomonas aeruginosa): >8 µg/mL
MIC50 (Enterobacter cloacae): >8 µg/mL
MIC100 (Enterobacter cloacae): >8 µg/mL
MIC (Enterobacter cloacae; [9]): 4 µg/mL
MIC50 (Escherichia coli): 4 µg/mL
MIC100 (Escherichia coli): >8 µg/mL
MIC (Escherichia coli; [10]): 0.25 µg/mL
MIC (μg/mL) against CFS-1292 in 100% CAA (1st run/2nd run) [2]: 16 µg/mL
MIC (μg/mL) against CFS-1292 in CAA + […] human serum [2]: 0.25 µg/mL
45 hr MIC (M. avium): >64 µg/mL
45 hr MIC (M. fortuitum): 4 µg/mL
45 hr MIC (M. intracellulare): >64 µg/mL
MIC50 (Acinetobacter baumannii): 2 µg/mL
MIC100 (Acinetobacter baumannii): 2 µg/mL
MIC Range (Acinetobacter baumannii): 2 to 8 µg/mL
MIC (Acinetobacter baumannii; [11]): 16 µg/mL
45 hr MIC (M. smegmatis; M. smegmatis MC^2 155, Run #1): 4 µg/mL
45 hr MIC (M. smegmatis; M. smegmatis MC^2 155, Run #2): 4 µg/mL
45 hr MIC (M. scrofulaceum): 8 µg/mL
MIC50 (Klebsiella pneumoniae [3]): >8 µg/mL
MIC100 (Klebsiella pneumoniae [3]): >8 µg/mL
MIC Range (Klebsiella pneumoniae [3]): >8 µg/mL
MIC (Klebsiella pneumoniae [3]): 16 µg/mL
MIC [4, 12]: 8 µg/mL
MIC [4, 13]: 8 µg/mL
MIC [5, 14]: >8 µg/mL
MIC [5, 15]: >8 µg/mL
MIC [5, 16]: >8 µg/mL
MIC [5, 17]: >8 µg/mL
MIC [5, 18]: >8 µg/mL
MIC [5, 19]: >8 µg/mL
MIC [5, 20]: >8 µg/mL
MIC50 (S. maltophilia): >8 µg/mL
MIC100 (S. maltophilia): >8 µg/mL
MIC Range (S. maltophilia): >8 µg/mL
MIC (100% CAA) [6]: 4
